Assay results from patent US9096596B2 (Janssen Pharmaceutica NV, priority 2013, dated 2015).
Where two headings read alike, the source gives them in different places.

Assays:
rat P2X7 [1] = target: T1, rat P2X7 (Rattus norvegicus (Rat), UniProt Q64663); assay: Ca2+ flux (FLIPR) in 1321N1 cells expressing recombinant rat P2X7 channel; assay type: cell-based; settings: 250 μM BzATP, Calcium-4 dye
Outline: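 1321N1 cells stably expressing P2X7 were loaded with Calcium-4 dye for 60 min in HEPES-buffered saline (pH 7.40, 1 mM CaCl2, 1 mM MgCl2), then preincubated with test compounds for 30 min. Fluorescence change was read 180 s after agonist addition.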

P2X7 [2] = target: T2, P2X7 (Homo sapiens (Human), UniProt Q99572); assay: Radioligand binding, human P2X7-1321N1 cell membranes, tracer tritiated A-804598
Description: (§1) On the day of the experiment, cell membrane preparations were made according to standard published methods. […] The compound can be prepared as described in the literature. […] The assay was terminated by filtration (GF/B filters pre-soaked with 0.3% PEI) and washed with washing buffer (Tris-HCl 50 mM). The IC50 generated in the binding assay was corrected for tracer concentration and affinity of the tracer to derive at the affinity (Ki) of the test compounds.

P2X7 [3] = target: T2, P2X7; assay: Ca2+ flux (FLIPR) in 1321N1 cells expressing recombinant human P2X7 channel; assay type: cell-based; settings: 250 μM BzATP, Calcium-4 dye
Description: 1321N1 cells expressing the recombinant human, rat or mouse P2X7 channel was cultured in HyQ DME/(HyClone/Dulbecco's Modified Eagle Medium) high glucose supplemented with 10% Fetal Bovine Serum (FBS) and appropriate selection marker. Cells were seeded at a density of 25000 cells/well (96-well clear bottom black walled plates) in 100 μl volume/well. On the day of the experiment, cell plates were washed with assay buffer, containing (in mM): 130 NaCl, 2 KCl, 1 CaCl2, 1 MgCl2, 10 HEPES, 5 glucose; pH 7.40 and 300 mOs. After the wash, cells were loaded with the Calcium-4 dye (Molecular Device) and incubated in the dark for 60 minutes. Test compounds were prepared at 250× the test concentration in neat DMSO. Intermediate 96-well compound plates were prepared by transferring 1.2 μL of the compound into 300 μL of assay buffer. A further 3× dilution occurred when transferring 50 μL/well of the compound plate to 100 μL/well in the cell plate. Cells were incubated with test compounds and dye for 30 minutes. […] The fluorescence change was measured 180 seconds after adding the agonist.

P2X7 [4] = target: T2, P2X7; assay: P2X7 antagonism in human PBMCs (IL-1β release, ELISA); assay type: cell-based; settings: test compound 10 μM, IL-1β release in human PBMCs, LPS 30 ng/ml + Bz-ATP 0.5 mM, read-out: PBMC 10 μM (% control)
Description: Human blood was collected using a blood donor program. […] Cells were incubated for an additional 1.5 hours. […] In Table 2, when the data cell has been left blank, it is intended to mean that the compound was not tested in that assay.

rat P2X7 [5] = target: T1, rat P2X7; assay: Radioligand binding, rat P2X7-1321N1 cell membranes, tracer tritiated A-804598
Description: as §1

[6] = human P2X7-1321N1 membranes, 1 hour at 4° C., IC50 corrected for tracer concentration and affinity
[7] = rat P2X7-1321N1 membranes, 1 hour at 4° C., IC50 corrected for tracer concentration and affinity

T2 sequence (Q99572 whole entry): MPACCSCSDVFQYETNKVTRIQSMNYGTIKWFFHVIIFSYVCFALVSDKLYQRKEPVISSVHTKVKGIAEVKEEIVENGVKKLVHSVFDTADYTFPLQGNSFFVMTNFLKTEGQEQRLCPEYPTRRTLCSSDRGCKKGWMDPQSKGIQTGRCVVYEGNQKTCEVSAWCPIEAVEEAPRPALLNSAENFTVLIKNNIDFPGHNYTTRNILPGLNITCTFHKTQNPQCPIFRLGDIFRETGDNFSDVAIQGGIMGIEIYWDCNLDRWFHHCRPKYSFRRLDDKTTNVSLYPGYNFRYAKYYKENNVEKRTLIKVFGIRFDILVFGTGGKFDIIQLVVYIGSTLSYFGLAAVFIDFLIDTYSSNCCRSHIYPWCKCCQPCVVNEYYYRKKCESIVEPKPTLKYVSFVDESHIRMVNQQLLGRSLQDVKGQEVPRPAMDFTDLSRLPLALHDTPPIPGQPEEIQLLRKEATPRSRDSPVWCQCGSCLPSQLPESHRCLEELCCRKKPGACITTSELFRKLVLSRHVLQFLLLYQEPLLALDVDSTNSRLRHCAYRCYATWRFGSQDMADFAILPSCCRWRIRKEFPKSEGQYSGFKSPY
T1 sequence (Q64663 whole entry): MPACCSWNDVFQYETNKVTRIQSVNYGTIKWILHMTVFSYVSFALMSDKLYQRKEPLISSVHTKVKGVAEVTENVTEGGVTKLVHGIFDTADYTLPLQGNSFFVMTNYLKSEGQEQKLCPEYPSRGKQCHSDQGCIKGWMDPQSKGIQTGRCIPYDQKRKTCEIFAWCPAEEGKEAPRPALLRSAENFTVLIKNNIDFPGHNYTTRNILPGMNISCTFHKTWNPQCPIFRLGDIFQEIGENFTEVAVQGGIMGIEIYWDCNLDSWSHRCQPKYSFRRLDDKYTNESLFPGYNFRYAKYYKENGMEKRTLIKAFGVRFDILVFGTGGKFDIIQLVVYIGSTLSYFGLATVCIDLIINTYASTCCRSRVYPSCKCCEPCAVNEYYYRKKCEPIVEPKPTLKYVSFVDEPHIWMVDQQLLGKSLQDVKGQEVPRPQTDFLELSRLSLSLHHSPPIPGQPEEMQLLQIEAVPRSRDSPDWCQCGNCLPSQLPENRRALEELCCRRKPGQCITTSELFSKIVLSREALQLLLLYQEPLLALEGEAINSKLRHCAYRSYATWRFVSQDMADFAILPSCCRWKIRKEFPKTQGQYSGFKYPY

SMILES | IC50 (rat P2X7 [1]) [nM] | Ki (P2X7 [2]; [6]) [nM] | IC50 (P2X7 [3]) [nM] | remaining activity at 10 µM (P2X7 [4]) [%] | Ki (rat P2X7 [5]; [7]) [nM] | Ki (rat P2X7 [5]) [nM] | Ki (P2X7 [2]) [nM]
Cc1nc2c(c(-c3ccn[nH]3)n1)CC(C)N(C(=O)c1ccc(Cl)cc1)C2 (stereo not shown) [Example 96, (4-chlorophenyl)(2,6-dimethyl-4-(1H-pyrazol-5-yl)-5,6-dihydropyrido[3,4-d]pyrimidin-7(8H)-yl)methanone] | 1840 | 631 | 50 | 3.8 |  |  | 
O=C(c1cccc(Cl)c1Cl)N1CCc2c(ncnc2-c2ccccn2)C1 [Example 11, 7-[(2,3-Dichlorophenyl)carbonyl]-4-pyridin-2-yl-5,6,7,8-tetrahydropyrido[3,4-d]pyrimidine] | > 10000 | 37.2 | 416 |  | 61.7 |  | 
O=C(c1cccc(Cl)c1Cl)N1CCc2c(ncnc2-c2cnccn2)C1 [Example 14, 7-[(2,3-Dichlorophenyl)carbonyl]-4-pyrazin-2-yl-5,6,7,8-tetrahydropyrido[3,4-d]pyrimidine] | 3160 | 63.1 | 25.1 |  | 31.6 |  | 
CN(C)c1nc2c(c(-c3ccn[nH]3)n1)CCN(C(=O)c1cccc(C(F)(F)F)c1Cl)C2 [Example 54, 7-{[2-Chloro-3-(trifluoromethyl)phenyl]carbonyl}-N,N-dimethyl-4-(1H-pyrazol-5-yl)-5,6,7,8-tetrahydropyrido[3,4-d]pyrimidin-2-amine] | 556 | 100 | 21 | 5 |  |  | 
Cc1nc2c(c(-c3ccn(CCF)n3)n1)C[C@@H](C)N(C(=O)c1cccc(C(F)(F)F)c1Cl)C2 (single isomer, unassigned) [Example 124, (R*)-(2-chloro-3-(trifluoromethyl)phenyl)(4-(1-(2-fluoroethyl)-1H-pyrazol-3-yl)-2,6-dimethyl-5,6-dihydropyrido[3,4-d]pyrimidin-7(8H)-yl)methanone] | 12.9 |  | 31 |  |  | 3.5 | 25.1
CC1Cc2c(nc(N)nc2-c2ccn[nH]2)CN1C(=O)c1cccc(C(F)(F)F)c1Cl (stereo not shown) [Example 63, (2-amino-6-methyl-4-(1H-pyrazol-5-yl)-5,6-dihydropyrido[3,4-d]pyrimidin-7(8H)-yl)(2-chloro-3-(trifluoromethyl)phenyl)methanone] | 2.5 | 22.4 | 316 | -4.1 |  |  | 
Cc1c(C(=O)N2CCc3c(ncnc3-c3cnccn3)C2)cccc1C(F)(F)F [Example 15, 7-{[2-Methyl-3-(trifluoromethyl)phenyl]carbonyl}-4-pyrazin-2-yl-5,6,7,8-tetrahydropyrido[3,4-d]pyrimidine] | 6310 | 79.4 | 31.6 |  | 50.1 |  | 
CC1Cc2c(ncnc2-c2ccn[nH]2)CN1C(=O)c1cccc(C(F)(F)F)c1Cl (stereo not shown) [Example 62, (2-chloro-3-(trifluoromethyl)phenyl)(6-methyl-4-(1H-pyrazol-5-yl)-5,6-dihydropyrido[3,4-d]pyrimidin-7(8H)-yl)methanone] | 5.6 | 25.1 | 7.8 | 44.7 |  |  | 
Cc1nc2c(c(-c3ccn[nH]3)n1)CCN(C(=O)c1cccc(Cl)c1Cl)C2 [Example 34, 7-[(2,3-Dichlorophenyl)carbonyl]-2-methyl-4-(1H-pyrazol-5-yl)-5,6,7,8-tetrahydropyrido[3,4-d]pyrimidine] | 2020 | 63.1 | 86.1 |  | 20 |  | 
O=C(c1cccc(Cl)c1Cl)N1CCc2c(ncnc2-c2ccccc2)C1 [Example 2, 7-[(2,3-Dichlorophenyl)carbonyl]-4-phenyl-5,6,7,8-tetrahydropyrido[3,4-d]pyrimidine] | 3240 | 95.5 | 36.5 |  | 251 |  | 
Cc1nc2c(c(-c3[nH]ncc3C(F)(F)F)n1)CCN(C(=O)c1cccc(C(F)(F)F)c1Cl)C2 [Example 39, 7-{[2-Chloro-3-(trifluoromethyl)phenyl]carbonyl}-2-methyl-4-[4-(trifluoromethyl)-1H-pyrazol-5-yl]-5,6,7,8-tetrahydropyrido[3,4-d]pyrimidine] | 25.1 | 50.1 | 100 |  | 17.8 |  | 
O=C(c1cccc(C(F)(F)F)c1Cl)N1CCc2c(ncnc2-c2ccn[nH]2)C1 [Example 18, (4-(1H-pyrazol-5-yl)-5,6-dihydropyrido[3,4-d]pyrimidin-7(8H)-yl)(2-chloro-3-(trifluoromethyl)phenyl)methanone] | 76.2 | 20 | 10.3 |  | 5 |  | 
O=C(c1cccc(C(F)(F)F)c1Cl)N1CCc2c(nc(C(F)(F)F)nc2-c2ccn[nH]2)C1 [Example 60, (4-(1H-pyrazol-5-yl)-2-(trifluoromethyl)-5,6-dihydropyrido[3,4-d]pyrimidin-7(8H)-yl)(2-chloro-3-(trifluoromethyl)phenyl)methanone] |  | 79.4 | 65.5 | 10.8 |  |  | 
Cc1nc2c(c(-c3[nH]ncc3F)n1)CCN(C(=O)c1cccc(Cl)c1Cl)C2 [Example 36, 7-[(2,3-Dichlorophenyl)carbonyl]-4-(4-fluoro-1H-pyrazol-5-yl)-2-methyl-5,6,7,8-tetrahydropyrido[3,4-d]pyrimidine] |  | 79.4 |  |  | 31.6 |  | 
Cc1nc2c(c(-c3ccn[nH]3)n1)CC(C)N(C(=O)c1ccccc1Cl)C2 (stereo not shown) [Example 97, (2-chlorophenyl)(2,6-dimethyl-4-(1H-pyrazol-5-yl)-5,6-dihydropyrido[3,4-d]pyrimidin-7(8H)-yl)methanone] | 14000 | 200 | 166 | -3.1 |  |  | 
O=C(c1cccc(C(F)(F)F)c1Cl)N1CCc2c(ncnc2-n2cnnc2)C1 [Example 109, (4-(4H-1,2,4-triazol-4-yl)-5,6-dihydropyrido[3,4-d]pyrimidin-7(8H)-yl)(2-chloro-3-(trifluoromethyl)phenyl)methanone] | 485 | 12.6 | 12.1 | 2.2 |  |  | 
Cc1nc2c(c(-c3ccn[nH]3)n1)CC(C)N(C(=O)c1ccc(F)cc1F)C2 (stereo not shown) [Example 93, (2,4-difluorophenyl)(2,6-dimethyl-4-(1H-pyrazol-5-yl)-5,6-dihydropyrido[3,4-d]pyrimidin-7(8H)-yl)methanone] | 385 | 200 | 28.5 | -1.7 |  |  | 
O=C(c1cccc(C(F)(F)F)c1Cl)N1CCc2c(ncnc2-c2cccc(F)n2)C1 [Example 130, (2-chloro-3-(trifluoromethyl)phenyl)(4-(6-fluoropyridin-2-yl)-5,6-dihydropyrido[3,4-d]pyrimidin-7(8H)-yl)methanone] | 1090 | 63.1 | 17.4 | 12.9 |  |  | 
O=C(c1cccc(C(F)(F)F)c1Cl)N1CCc2c(ncnc2-n2nccn2)C1 [Example 108, 7-{[2-Chloro-3-(trifluoromethyl)phenyl]carbonyl}-4-(2H-1,2,3-triazol-2-yl)-5,6,7,8-tetrahydropyrido[3,4-d]pyrimidine] | 67.9 |  |  |  | 7.9 |  | 
Cc1nc2c(c(-c3ccn[nH]3)n1)CC(C)N(C(=O)c1cccc(C(F)(F)F)c1C)C2 (stereo not shown) [Example 77, (2,6-dimethyl-4-(1H-pyrazol-5-yl)-5,6-dihydropyrido[3,4-d]pyrimidin-7(8H)-yl)(2-methyl-3-(trifluoromethyl)phenyl)methanone] |  | 31.6 | 63.1 | 20.9 |  |  | 
O=C(c1cccc(C(F)(F)F)c1F)N1CCc2c(ncnc2-c2ccn[nH]2)C1 [Example 111, (4-(1H-pyrazol-5-yl)-5,6-dihydropyrido[3,4-d]pyrimidin-7(8H)-yl)(2-fluoro-3-(trifluoromethyl)phenyl)methanone] | 807 | 50.1 | 353 | 0.6 |  |  | 
O=C(c1cccc(C(F)(F)F)c1Cl)N1CCc2c(nc(C3CC3)nc2-c2ccn[nH]2)C1 [Example 57, 7-{[2-Chloro-3-(trifluoromethyl)phenyl]carbonyl}-2-cyclopropyl-4-(1H-pyrazol-5-yl)-5,6,7,8-tetrahydropyrido[3,4-d]pyrimidine] | 161 | 63.1 | 16.5 | -9.6 |  |  | 
